Measurements reported in BindingDB's records for patent US12351556 (Inserm (Institut National De La Sante Et De La Recherche …, 2025).

Target: Mitogen-activated protein kinase 14 (Homo sapiens, UniProt Q16539)
Assay: In Vitro Affinity Assay
Text: Not found

Mitogen-activated protein kinase 14, sequence (Q16539 whole entry): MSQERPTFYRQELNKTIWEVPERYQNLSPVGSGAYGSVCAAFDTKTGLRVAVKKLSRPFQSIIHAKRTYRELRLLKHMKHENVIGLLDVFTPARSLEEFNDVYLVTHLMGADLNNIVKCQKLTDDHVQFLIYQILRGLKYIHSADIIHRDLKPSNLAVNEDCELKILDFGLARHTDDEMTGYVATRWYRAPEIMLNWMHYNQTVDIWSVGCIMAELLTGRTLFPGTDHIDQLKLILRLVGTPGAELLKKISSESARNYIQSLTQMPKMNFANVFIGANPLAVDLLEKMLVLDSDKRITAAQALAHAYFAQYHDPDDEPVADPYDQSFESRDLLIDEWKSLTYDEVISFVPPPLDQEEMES

Row | IC50 [nM] | Compound
1 | 3030 | O=C1NC=C(Nc2ccccc2)CC1c1cccc2[nH]ccc12 (stereo not drawn) [US12351556, Compound 67]
2 | 1460 | O=C1NC=C(Nc2ccccc2)CC1c1ccccc1Br (stereo not drawn) [US12351556, Compound 69]
3 | 230 | O=C1NCC(Nc2ccccc2F)C=C1c1cccc2[nH]ccc12 (stereo not drawn) [US12351556, Compound 118]
4 | 1420 | O=C1NCC(Nc2ccc(F)cc2)C=C1c1cccc2[nH]ccc12 (stereo not drawn) [US12351556, Compound 119]
5 | 430 | O=C1NCC(Nc2ccc(F)cc2)C=C1c1cccc2[nH]ccc12 (stereo not drawn) [US12351556, Compound 120]
6 | 5250 | COc1ccccc1NC1=CNC(=O)C(c2cccc3[nH]ccc23)C1 (stereo not drawn) [US12351556, Compound 121]
7 | 5530 | COc1cccc(NC2=CNC(=O)C(c3cccc4[nH]ccc34)C2)c1 (stereo not drawn) [US12351556, Compound 122]
8 | 3670 | COc1ccc(NC2=CNC(=O)C(c3cccc4[nH]ccc34)C2)cc1 (stereo not drawn) [US12351556, Compound 123]
9 | 1060 | Cc1ccccc1NC1=CNC(=O)C(c2cccc3[nH]ccc23)C1 (stereo not drawn) [US12351556, Compound 130]
10 | 1040 | O=C1NCC(NC2=CC(O)CC=C2)C=C1c1cccc2[nH]ccc12 (stereo not drawn) [US12351556, Compound 134]
11 | 2720 | O=C1NCC(Nc2ccccc2Br)C=C1c1cccc2[nH]ccc12 (stereo not drawn) [US12351556, Compound 141]
12 | 660 | O=C1NCC(NC2=CC(Br)CC=C2)C=C1c1cccc2[nH]ccc12 (stereo not drawn) [US12351556, Compound 142]
13 | 2350 | O=C1NCC(Nc2ccc(Br)cc2)C=C1c1cccc2[nH]ccc12 (stereo not drawn) [US12351556, Compound 143]
